For series [1], the target named is T1, Beta-3 adrenergic receptor (Homo sapiens, UniProt P13945). Kind of series: Agonist activity at human beta-3 adrenergic receptor expressed in CHO cells assessed as cAMP levels relative to isoproterenol. In kind it is functional, cell-based. The conditions noted are these: filed as agonist.
Target sequence in this assay (P13945 whole entry, looked up): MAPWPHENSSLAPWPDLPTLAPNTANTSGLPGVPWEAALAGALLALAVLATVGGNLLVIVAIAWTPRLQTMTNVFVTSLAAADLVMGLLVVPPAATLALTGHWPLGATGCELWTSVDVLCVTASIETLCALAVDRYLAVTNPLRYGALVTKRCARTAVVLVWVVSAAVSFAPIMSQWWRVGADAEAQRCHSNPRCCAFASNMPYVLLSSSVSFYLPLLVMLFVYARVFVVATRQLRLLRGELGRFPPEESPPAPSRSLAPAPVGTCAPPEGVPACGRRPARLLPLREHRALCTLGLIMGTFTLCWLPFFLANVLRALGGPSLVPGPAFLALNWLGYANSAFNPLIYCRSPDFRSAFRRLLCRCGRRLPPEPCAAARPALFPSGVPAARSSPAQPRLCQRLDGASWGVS
Series [2] has as its target Beta-2 adrenergic receptor (Homo sapiens, UniProt P07550). Kind of series: Agonist activity at human beta-2 adrenergic receptor expressed in CHO cells assessed as cAMP levels. In kind it is functional, cell-based. For orientation: Cyclic AMP is a second messenger, typically raised through Gs and lowered through Gi signalling.
For series [3], the target named is Beta-1 adrenergic receptor (Homo sapiens, UniProt P08588). The series can be described thus: Agonist activity at human beta-1 adrenergic receptor expressed in CHO cells assessed as cAMP levels. In kind it is functional, cell-based.
Chain of Beta-1 adrenergic receptor (P08588 whole entry): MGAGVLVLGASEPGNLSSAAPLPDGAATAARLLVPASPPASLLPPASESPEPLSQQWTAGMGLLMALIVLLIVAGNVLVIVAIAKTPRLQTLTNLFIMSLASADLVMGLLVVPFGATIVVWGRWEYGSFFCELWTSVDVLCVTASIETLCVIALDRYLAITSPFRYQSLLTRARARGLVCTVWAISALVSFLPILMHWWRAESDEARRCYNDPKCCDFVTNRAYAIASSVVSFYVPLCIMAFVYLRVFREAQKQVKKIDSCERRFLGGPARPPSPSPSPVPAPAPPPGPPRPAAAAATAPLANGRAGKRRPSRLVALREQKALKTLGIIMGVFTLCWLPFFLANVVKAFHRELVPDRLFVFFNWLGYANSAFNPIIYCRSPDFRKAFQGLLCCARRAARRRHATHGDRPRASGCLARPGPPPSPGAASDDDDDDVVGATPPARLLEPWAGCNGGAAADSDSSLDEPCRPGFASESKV
For series [4], the species on record is Rattus norvegicus. The series can be described thus: Increase in heart rate in rat at 0.01 mM. In kind it is functional.
Series [5] has as its target T1, Beta-3 adrenergic receptor. The series can be described thus: Agonist activity at human beta3 adrenergic receptor expressed in CHO cells assessed as cAMP levels. In kind it is functional, cell-based.
Target sequence in this assay (P13945 whole entry): as the sequence (P13945 whole entry, looked up) above
The target in series [6] is T1, Beta-3 adrenergic receptor. Kind of series: Agonist activity at human beta-3 adrenergic receptor expressed in CHO cells assessed as cAMP levels at 100 nM relative to isoproterenol. In kind it is functional, cell-based.
Target sequence in this assay (P13945 whole entry, looked up): as above
Series [7] concerns the target Beta-3 adrenergic receptor (Rattus norvegicus, UniProt P26255). Kind of series: Agonist activity at rat beta-3 adrenergic receptor expressed in CHO cells assessed as cAMP levels. Format: functional, cell-based.
Series [8] concerns the target Beta-3 adrenergic receptor (Rattus norvegicus) (UniProt P26255). Kind of series: Agonist activity at rat beta-3 adrenergic receptor expressed in CHO cells assessed as cAMP levels relative to isoproterenol. Conditions: filed as agonist. In kind it is functional, cell-based.
In series [9] the test system is Rattus norvegicus. The series can be described thus: Reduction in respiratory quotient in DIO Long-Evans rat at 10 mg/kg, po after 20 hrs relative to control. Format: functional. Further details: scale not given: the % may be the effect or the level left.
Series [10] deals with Rattus norvegicus. The series can be described thus: Increase in energy expenditure in DIO Long-Evans rat at 10 mg/kg, po after 20 hrs relative to control. Format: functional.
Series [11] in a line: AUC (0-6h) in DIO Long-Evans rat at 10 mg/kg, po. In kind it is ADME, organism-based. Further details: time < 6 hr, dose 10 mg/kg, route oral. The conditions noted are these: plasma.

The values below come from ChEMBL document CHEMBL1139684, “Potent benzimidazolone based human beta(3)-adrenergic receptor agonists” (Bioorg Med Chem Lett, 2006).

SMILES strings stand for the structures.

Chain of Beta-3 adrenergic receptor (Rattus norvegicus, UniProt P26255) (P26255 whole entry): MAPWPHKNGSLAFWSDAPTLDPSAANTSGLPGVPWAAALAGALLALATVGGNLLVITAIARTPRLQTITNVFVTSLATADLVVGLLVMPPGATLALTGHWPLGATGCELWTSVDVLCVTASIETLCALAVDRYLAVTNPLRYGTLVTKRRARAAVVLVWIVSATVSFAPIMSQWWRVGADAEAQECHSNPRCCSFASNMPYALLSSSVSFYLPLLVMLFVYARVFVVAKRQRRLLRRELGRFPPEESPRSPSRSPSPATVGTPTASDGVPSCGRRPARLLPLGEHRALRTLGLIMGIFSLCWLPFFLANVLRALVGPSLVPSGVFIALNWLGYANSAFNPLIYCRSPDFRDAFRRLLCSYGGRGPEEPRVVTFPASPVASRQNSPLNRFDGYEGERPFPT
Chain of Beta-3 adrenergic receptor (Rattus norvegicus) (P26255 whole entry): as above
Chain of Beta-2 adrenergic receptor (P07550 whole entry): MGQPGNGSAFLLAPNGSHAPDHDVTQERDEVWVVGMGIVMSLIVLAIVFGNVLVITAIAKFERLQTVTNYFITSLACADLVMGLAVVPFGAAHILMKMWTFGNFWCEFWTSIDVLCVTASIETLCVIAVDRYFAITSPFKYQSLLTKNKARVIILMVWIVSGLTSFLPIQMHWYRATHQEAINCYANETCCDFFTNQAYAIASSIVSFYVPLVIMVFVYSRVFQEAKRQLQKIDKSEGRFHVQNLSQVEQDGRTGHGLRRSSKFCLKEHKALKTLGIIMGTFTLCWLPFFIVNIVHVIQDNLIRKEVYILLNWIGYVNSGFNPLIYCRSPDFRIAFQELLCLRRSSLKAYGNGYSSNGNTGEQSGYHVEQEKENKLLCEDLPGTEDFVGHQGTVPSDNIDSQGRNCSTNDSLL

`CCn1c(=O)[nH]c2cccc(OC[C@@H](O)CNC(C)(C)Cc3ccc(Oc4ccc(C(N)=O)cn4)cc3)c21`: the Emax in [1] was 65.1%. Further, the EC50 in series [2] is above 10 µM; in series [3], above 10 µM; in series [5], 0.0052 µM (agonist). Further, the Activity in the series listed under Rattus norvegicus [4] was 20.8%.

Consider `CC(Cc1ccc(Oc2ccc(C(N)=O)cn2)cc1)NC[C@H](O)COc1cccc2[nH]c(=O)n(C)c12` (stereo not given in full), for which the Activity in series [6] (filed as agonist) is 87%.

With `CC(Cc1ccc(Oc2ccc(C(N)=O)cn2)cc1)NC[C@H](O)COc1cccc2c1n(C)c(=O)n2C` (stereo not given in full), in series [6], the Activity turned out to be 25%.

In the case of `CC(Cc1ccc(Oc2ccc(C(=O)O)cc2)cc1)NC[C@H](O)COc1cccc2c1n(C)c(=O)n2C` (stereo not given in full), the Activity in [6] was 28%.

Take `CC(C)(Cc1ccc(Oc2ccc(C(N)=O)cn2)cc1)NC[C@H](O)COc1cccc2[nH]c(=O)n(CCC3CC3)c12`: the results for the maximal effect (Emax) in [1] and in series [8] were 67.9% and 42.7%, respectively. Besides, the EC50 is 0.0068 µM (agonist) in series [7], above 10 µM in [2], above 10 µM in series [3] and 0.0054 µM (agonist) in series [5]. In the series filed under Rattus norvegicus [4], this compound had an Activity of 8.9%.

In the case of `CC(Cc1ccc(Oc2ccc(C(N)=O)cn2)cc1)NC[C@H](O)COc1cccc2[nH]c(=O)[nH]c12` (stereo not given in full), in [6] (filed as agonist), the Activity is 97%.

With `CC(Cc1ccc(Oc2ccc(C(=O)O)cc2)cc1)NC[C@H](O)COc1cccc2[nH]c(=O)[nH]c12` (stereo not given in full), the Activity in [6] (filed as agonist) was 99%.

Turning to `CC(C)(Cc1ccc(Oc2ccc(C(N)=O)cn2)cc1)NC[C@H](O)COc1cccc2[nH]c(=O)n(CCC3CCCC3)c12`, the Emax in series [1] was 63.7%. The EC50 in [3] was above 10 µM; in series [5], 0.0117 µM (agonist). The compound also yielded an Activity in the series listed under Rattus norvegicus [4] of 9.9%.

In the case of `CCCn1c(=O)[nH]c2cccc(OC[C@@H](O)CNC(C)(C)Cc3ccc(Oc4ccc(C(N)=O)cn4)cc3)c21`, in series [1], the maximal effect (Emax) was 73.9%. For the same compound, the EC50 in series [2] was above 10 µM; in series [3], above 10 µM; in [5], 0.0052 µM (agonist). For the same compound, the Activity in the series filed under Rattus norvegicus [4] turned out to be 19.9%.

As for `CC(Cc1ccc(Oc2ccc(C#N)cn2)cc1)NC[C@H](O)COc1cccc2c1n(C)c(=O)n2C` (stereo not given in full), the Activity in series [6] is 11%.

Consider `CC(Cc1ccc(Oc2ccc(C#N)cn2)cc1)NC[C@H](O)COc1cccc2[nH]c(=O)[nH]c12` (stereo not given in full), for which the Activity in series [6] (filed as agonist) is 88%.

With `CC(Cc1ccc(Oc2ccc(C(N)=O)cn2)cc1)NC[C@H](O)COc1cccc2c1[nH]c(=O)n2C` (stereo not given in full), the Activity in series [6] stood at 33%.

In the case of `Cn1c(=O)[nH]c2cccc(OC[C@@H](O)CNC(C)(C)Cc3ccc(Oc4ccc(C(N)=O)cn4)cc3)c21`, the Emax was 79.7% in series [1] and 59.6% in series [8]. Also, the EC50 was 0.0245 µM (agonist) in [7], above 10 µM in [2], 0.0087 µM (agonist) in series [3] and 0.0071 µM (agonist) in [5]. Also, the Activity in the series listed under Rattus norvegicus [4] was 17.7%.

As to `CC(Cc1ccc(Oc2ccc(C(=O)O)cc2)cc1)NC[C@H](O)COc1cccc2[nH]c(=O)n(C)c12` (stereo not given in full), the Activity in series [6] (filed as agonist) is 84%.

On to `CC(C)(Cc1ccc(Oc2ccc(C(N)=O)cn2)cc1)NC[C@H](O)COc1cccc2[nH]c(=O)n(CCC3CCC3)c12`, for which the Emax was 58.2% in [1] and 49.6% in series [8]. For the same compound, the concentration for a half-maximal effect (EC50) in series [7] was 0.0287 µM (agonist); in series [2], above 10 µM; in series [3], above 10 µM; in series [5], 0.0101 µM (agonist). Moreover, the values for the Activity in the series listed under Rattus norvegicus [4], in the series with Rattus norvegicus [9] and in the series with Rattus norvegicus [10] were 6.5%, 29% and 18%, respectively. This compound came in with an AUC(0-t) at 6 h in series [11] of 112 ng·h/mL.

Consider `CC(Cc1ccc(Oc2ccc(C(=O)O)cc2)cc1)NC[C@H](O)COc1cccc2c1[nH]c(=O)n2C` (stereo not given in full), for which the Activity in [6] came to 30%.

On to `CC(Cc1ccc(Oc2ccc(C#N)cn2)cc1)NC[C@H](O)COc1cccc2[nH]c(=O)n(C)c12` (stereo not given in full), for which the Activity in series [6] (filed as agonist) was 83%.

Regarding `CC(Cc1ccc(Oc2ccc(C#N)cn2)cc1)NC[C@H](O)COc1cccc2c1[nH]c(=O)n2C` (stereo not given in full), in series [6], the Activity was determined as 29%.

One may read the Emax as the greatest response seen or fitted, relative to the assay's reference. What is called EC50 is the concentration needed to bring the measured effect to its halfway point. By AUC(0-t) is commonly meant the area under the concentration-time curve up to a stated or last time point.
